Reference: patent publication US7632864B2, “Gabapentin analogues and process thereof” (Hikal Ltd., priority 2005, dated 2009)

How the values were obtained:
[1] = test system: alpha 2 detla sub unit derived from porcine brain tissue; conditions: radio ligand binding, compound without stereochemistry, value from U.S. Pat. No. 6,103,932; cited from earlier work
[2] = water solubility (precipitation of free amino acid at pH 7); format: physicochemical; conditions: compared to the other gabapentin analogues
Description: The process for the preparation of the cis and trans isomer of 4-t-butylgabapentin has been achieved, as outlined in Fig. I. 4-t-Butyl-cyclohexanone (I) was treated with ethylcyano acetate and ammonia in methanol to yield ammonium salt of dicyanoimide (2). Hydrolysis of (2) with hot sulfuric acid afforded the diacid (3) which was converted to the anhydride (4). (4) treated with aqueous ammonia to give the mono-amide (5) as a mixture containing approximately equal proportions of stereoisomers. Reaction of (5) with sodium hypobromite solution led to the formation of lactam (6) as a mixture of stereoisomers [proton NMR (7) and its isomer with NCH2 axial in the ratio of 3:2] from which one of the isomer could be crystallized out in pure form from methanol-hexane, mp 176-7° C. and its structure identified as (7) by NMR and single crystal X-ray analysis (Hydrolysis of lactam (6) with hot concentrated HCl gave a mixture of isomers of 4-t-butyl gabapentin hydrochloride (8). Crystallization of (8) from water afforded in pure form, mp 146-147° C., the isomer hemihydrate (9) with aminomethyl group in the anxial position. […]

Row | SMILES | melting point [°C] | IC50 [1] [µM] | water solubility [2]
1 | CC(C)(C)C1CCC(CN)(CC(=O)O)CC1 (stereo not shown) [4-t-butyl gabapentin] | 176 to 180 | 200 | 
2 | CC(C)(C)C1CCC(CN)(CC(=O)O)CC1 (stereo not shown) [Compound 10, 4-t-butylgabapentin] | 182 to 183 |  | much poorer water solubility
